Each block holds one compound with its values, some of them ahead of it.
Assays:
Format in all cases: cell-based
[1] = test system: HeLa cells; assay: Cell viability / cell- and photo-toxicity under prolonged imaging; conditions: 5 μM
Description: In the experiments described above, the cells were exposed to Cer-TCO/SiR-Tz for minutes, a relatively short time period. To evaluate whether this Golgi labeling strategy would result in cell- or photo-toxicity over prolonged periods (such as hours), HeLa cells were treated with varying concentrations of either Cer-TCO/SiR-Tz or BODIPY® FL C5-ceramide (BODIPY-Cer) (Marks, et al., 2008, Cell Biol. 130:819-832; Pagano, et al., 1991, J. Cell Biol. 113:1267-1279), a commercially available fluorescent dye that labels the Golgi. […]
Hela cells stably expressing GalNAcT2-GFP were cultured on 35 mm glass bottom dishes subsequently labeled with various concentrations of TCO-Cer (0, 1, 2, and 5 μM) and SiR-Tz (0, 1, and 2 μM) following the protocol described elsewhere herein. […] After equilibration for 30 min, phase contrast images were taken at an interval of 20 min and fluorescence images at an interval of 10 min over 400-750 min. […] The number of physically intact cells was counted at each time point. For each condition at least 110 cells were counted/observed in the initial images (n0 (0 μM TCO-Cer, 0 μM SiR-Tz)=123 cells, n0 (2 μM TCO-Cer, 2 μM SiR-Tz)=113 cells, n0 (1 μM TCO-Cer, 1 μM SiR-Tz)=130 cells, n0 (5 μM TCO-Cer, 1 μM SiR-Tz)=120 cells, n0 (5 μM BODIPY-Cer)=123 cells).

[2] = test system: HeLa cells (Golgi label); assay: Photostability in sequential 3D spinning disk confocal imaging; conditions: live cells; spinning disk confocal
Description: The relative photostability of Cer-TCO/SiR-Tz to both BODIPY-Cer and the SiR labeled SNAP-tag Golgi protein Rab6 was compared. The latter is the product of reaction between Rab6-SNAP and a benzyl guanine derivative of SiR (SiR-BG) (Lukinavicius, et al., 2013, Nature Chem. 5:132-139) and thus contains the same near-IR dye as SiR-Tz (FIGS. 5A-5B). HeLa cells were treated with Cer-TCO/SiR-Tz or BODIPY-Cer, while Rab6-SNAP-expressing cells were treated with SiR-BG. The cells were then examined in sequential 3D images using spinning disk confocal microscopy; 3D visualization limited fluorescence fluctuations due to axial sample drift. In each case, 3D “stacks” of 22 optical sections were acquired in series up to 500 times in live or fixed cells (FIGS. 5A-5B). In live cells, even under optimal imaging conditions the BODIPY-Cer fluorescent signal decreased by 50% after fewer than 15 stacks. In striking contrast, the fluorescent signal of cells treated with 2 μM Cer-TCO followed by 2 μM SiR-Tz decreased by only 10% after more than 120 3D stacks had been acquired. Consistent with a lower density of Rab6-SNAP protein in the Golgi, the signal from Rab6-SNAP-SiR decayed at an intermediate rate, decreasing by 50% after about 50 3D stacks. […] After 500 3D stacks the fluorescent signal of Cer-SiR decreased 16% whereas that of Rab6-SNAP-SiR decreased by 84%. […]

[3] = test system: HeLa cells that stably expressed GalNAcT2-GFP; assay: FRAP analysis of GalNAcT2-GFP mobility within the Golgi; conditions: recovery over 490 seconds, Cer-TCO alone or 5 μM Cer-TCO and 1 μM SiR-Tz, versus untreated
Excerpt: To further test whether the combination of Cer-TCO and SiRTz affected traffic within the Golgi, HeLa cells that stably expressed the GFP-tagged transmembrane Golgi enzyme GalNAcT2 (Storrie, et al., 1998, J. Cell Biol. 143:1505-1521) were used and its intra-organelle mobility was monitored using fluorescence recovery after photobleaching (FRAP) experiments (FIG. 4A). A small rectangular area of the Golgi (about 2.2 microns wide) was photobleached at 488 nm and the fluorescence recovery was monitored over 490 seconds (FIG. 4B). Both the t1/2 of recovery and mobile fraction were unchanged when the cells were treated with Cer-TCO alone or the combination of 5 μM Cer-TCO and 1 μM SiR-Tz (FIG. 4C). Thus, treatment of cells with Cer-TCO alone or Cer-TCO and SiR-Tz led to no detectable change in the diffusion of GalNAcT2-GFP within the Golgi apparatus.
The stable cell line was cultured on a 35 mm glass bottom dish. In the negative control (no treatment), the medium was replaced by DMEM ph(−). […] The photobleaching of the FRAP experiment was performed with a fluorescence recovery after photobleaching unit of the microscope. […] Quantification was performed with ImageJ. The fluorescence intensity in the unbleached region of the cytosol was subtracted from that in the bleached region of Golgi. […]

[4] = test system: HeLa cells that stably expressed GalNAcT2-GFP (Golgi); assay: Two-step Golgi labeling and colocalization with GalNAcT2-GFP by confocal microscopy
Description: To evaluate whether the Golgi could be selectively imaged using Cer-SiR, HeLa cells that stably expressed a protein fusion composed of GFP and N-acetyl-galactosaminyltransferase 2 (GalNAcT2), a transmembrane protein that localizes to the Golgi with high specificity (Storrie, et al., 1998, J. Cell Biol. 143:1505-1521), were used. These cells were treated with 2 μM Cer-TCO (5 min), maintained at 19.5° C. for 60 min to localize the lipid to the Golgi, treated subsequently with 2 μM SiR-Tz (30 min), and visualized using confocal microscopy (FIG. 2A).
The GalNAcT2-GFP and Cer-SiR signals colocalized with a Pearson's coefficient of 0.50±0.02; the corresponding value for the signals from GalNAcT2-GFP and SiR-Tz was 0.08±0.01 (p<0.0001) (FIG. 10), supporting that Cer-TCO effectively localized to the Golgi and reacted efficiently with SiR-Tz.
Stably or transiently transfected HeLa cells were cultured on 35 mm glass bottom dishes (Mattek). To label with Cer-TCO/SiR-Tz, the cells were incubated in PBS containing 1% casein, 0.2% Pluronic F-127 and 2 or 5 μM TCO-Cer for 5 min at 37° C. After washing three times with DMEM ph(−), the cells were incubated for 1 h at 19.5° C. in DMEM ph(−). During this incubation the dish was sealed with parafilm to protect the cells from the used water bath. Subsequently, the cells were washed three times and PBS containing 1% casein and 2 or 1 μM SiR-Tz, respectively, was added to the dish. The dish was sealed with parafilm again and incubated for 30 min at 19.5° C. After washing three times with DMEM ph(−), the cells were observed under a confocal microscope. Fixed samples were prepared similarly with an additional treatment with 4% PFA for 10 min at room temperature after first temperature block. […]
The Pearson correlation between the SiR and the GFP signal within cells was determined using the correlation measurement tool in Volocity. […] For cells stably expressing GalNAcT2-GFP and treated with SiR-Tz and Cer-TCO 13 samples (cells) were analyzed and for cells only treated with SiR-Tz 8 samples were analyzed. […]

Number of 3D stacks after which fluorescent signal decreased by 50% [2]: < 15 stacks
Compound: CCCCCCCCCCCCC/C=C/[C@@H](O)[C@H](CO)NC(=O)CCCCC1=[N+]2C(=Cc3c(C)cc(C)n3[B-]2(F)F)C=C1 [BODIPY-Cer, BODIPY® FL C5-ceramide, reference compound]
Time after which cell rounding and de-attachment was induced [1]: about 6 hours

Compound: CCCCCCCCCCCCC/C=C/[C@@H](O)[C@H](CO)NC(=O)CCCCCNC(=O)OC1CC/C=C/CCC1 (stereo partly drawn) [Cer-TCO, (E)-cyclooct-4-en-1-yl (6-(((2S,3R,E)-1,3-dihydroxyoctadec-4-en-2-yl)amino)-6-oxohexyl)carbamate]
Mobile fraction (FRAP) [3]: unchanged

Compound: CN(C)c1ccc2c(c1)[Si](C)(C)C1=CC(=[N+](C)C)C=CC1=C2c1cc(C(=O)NCc2ccc(-c3nncnn3)cc2)ccc1C(=O)[O-] [SiR-Tz, 4-((4-(1,2,4,5-tetrazin-3-yl)benzyl)carbamoyl)-2-(7-(dimethylamino)-3-(dimethyliminio)-5,5-dimethyl-3,5-dihydrodibenzo[b,e]silin-10-yl)benzoate]
Pearson's coefficient of colocalization with GalNAcT2-GFP signal ([4]; 2 μM Cer-TCO then 2 μM SiR-Tz, or SiR-Tz only, Golgi area, confocal): 0.08±0.01 | Labeling of cells / Golgi region ([4]; live HeLa GalNAcT2-GFP cells, Cer-TCO followed by SiR-Tz, or SiR-Tz alone): did not label the cells

Source: patent publication US10087199B2, “Super-resolution imaging compositions and methods using same” (Yale University, priority 2014, dated 2018)
